Where “and” joins values, the source holds several entries; their conditions need not be identical. Identical values can stand only once. Counter-ions that a name gives are not always drawn.
Row | SMILES | melting point
1 | COc1cc(OC)cc(C(CCNC(C)C)c2ccc3ncc(-c4cnn(C)c4)nc3c2)c1 (single isomer, unassigned) (as salt: oxalic acid salt) [Compound 19a] | 163 °C and 162 °C
2 | COc1cc(OC)cc(C(CCNC(C)C)c2ccc3ncc(-c4cnn(C)c4)nc3c2)c1 (single isomer, unassigned) (as salt: oxalic acid salt) [Compound 32a] | 172 °C
3 | COc1cc(OC)cc(C(CC(C)=O)c2ccc3ncc(-c4cnn(C)c4)nc3c2)c1 (stereo not drawn) [Compound 16] | 154 °C

— patent US9290478B2, “Substituted quinoxalines as FGFR kinase inhibitors” (ASTEX THERAPEUTICS LTD, priority 2010, dated 2016)
